Patent publication EP0923292B1, “IMPROVED METHOD FOR SYSTEMIC ADMINISTRATION OF 2,4-DIENOIC ACID-TYPE INSECTICIDES TO TERRESTRIAL MAMMALS” (priority 1996, dated 1998)

Key:
[1] = (S)-Methoprene concentration in fat of rat upon in vivo administration (radioassay/TLC); set-up: species or system Sprague-Dawley male rats
Method: Sprague-Dawley CD® VAF/PLUS® male rats were purchased from Charles River Breeding Laboratories, Inc., Portage, Michigan, USA. The body weights of the rats averaged 200 g at the time of dose administration. The rats were quarantined for five days before use, except for jugular vein-cannulated rats, to which doses were administered 1 to 3 days after receipt. The rats were divided into three groups for dosage with ^14C-(S)-methoprene: • Group A received a single dose of 10 mg/kg of the ovicide through intravenous injection via the jugular vein. Three rats each were sacrificed at 0.5 hour, 1 hour, 2 hours, 3 hours, 4 hours, 5 hours, 6 hours, and 7 hours after dosing. • Group B received a single dose 10 mg/kg of the ovicide through oral administration by gavage dosing. Three rats each were sacrificed at 1 hour, 2 hours, 3 hours, 4 hours, 5 hours, 6 hours, 7 hours, and 8 hours after dosing. • Group C received a single dose 100 mg/kg of the ovicide through oral administration by gavage dosing. Three rats each were sacrificed at 1 hour, 2 hours, 3 hours, 4 hours, 5 hours, 6 hours, 7 hours, and 8 hours after dosing. After dosing the rats were house individually in cages. Daily room temperature was maintained between 69°C and […] and the relative humidity was between 40% and 70%. All rats had free access to food and fresh tap water.
For analyses of the ovicide in fat, visceral fat was collected from the sacrificed rats. The fat sample from each rat was thoroughly mixed 1:1 with cellulose powder, and homogenized with a few drops of water. A portion (0.5 to 1 g) of each fat sample was extracted with 10 mL of a mixture of hexane/diethyl ether (1:1), which was treated vigorously on a sonicator for four minutes, then vortex mixed for two minutes and centrifuged. This procedure was repeated twice. The extracts were then combined, radioassayed, rotary evaporated, and concentrated under nitrogen for TLC analysis. A small amount of methanol was added to precipitate the fat to improve the TLC separation. Radioassays and TLC analyses were performed in the same manner as for the blood samples.

[2] = (S)-Methoprene concentration in rat blood upon in vivo administration (radioassay/TLC); settings: average of three animals

COC(C)(C)CCC[C@H](C)C/C=C/C(C)=C/C(=O)OC(C)C [(S)-Methoprene, 1-isopropyl (E,E)-11-methoxy-3,7,11-trimethyl dodecadi-2,4-enoate]
(S)-Methoprene Concentration in Fat ([1]; Group A 10 mg/kg I.V., 0.5 hours, average of three animals): 4.193 ± 1.566 ppm | (S)-Methoprene Concentration in Fat ([1]; Group A 10 mg/kg I.V., 1 hour, average of three animals): 6.936 ± 3.259 ppm | (S)-Methoprene Concentration in Fat ([1]; Group A 10 mg/kg I.V., 2 hours, average of three animals): 5.929 ± 1.197 ppm | (S)-Methoprene Concentration in Fat ([1]; Group A 10 mg/kg I.V., 3 hours, average of three animals): 5.233 ± 0.457 ppm | (S)-Methoprene Concentration in Fat ([1]; Group A 10 mg/kg I.V., 4 hours, average of three animals): 8.179 ± 3.532 ppm | (S)-Methoprene Concentration in Fat ([1]; Group A 10 mg/kg I.V., 5 hours, average of three animals): 7.596 ± 3.990 ppm | (S)-Methoprene Concentration in Fat ([1]; Group A 10 mg/kg I.V., 6 hours, average of three animals): 6.734 ± 2.209 ppm | (S)-Methoprene Concentration in Fat ([1]; Group A 10 mg/kg I.V., 7 hours, average of three animals): 8.077 ± 1.082 ppm | (S)-Methoprene Concentration in Fat ([1]; Group B 10 mg/kg oral, 1 hour, average of three animals): 0.272 ± 0.103 ppm | (S)-Methoprene Concentration in Fat ([1]; Group B 10 mg/kg oral, 2 hours, average of three animals): 1.138 ± 0.388 ppm | (S)-Methoprene Concentration in Fat ([1]; Group B 10 mg/kg oral, 3 hours, average of three animals): 1.715 ± 0.680 ppm | (S)-Methoprene Concentration in Fat ([1]; Group B 10 mg/kg oral, 4 hours, average of three animals): 2.327 ± 1.090 ppm | (S)-Methoprene Concentration in Fat ([1]; Group B 10 mg/kg oral, 5 hours, average of three animals): 2.980 ± 0.657 ppm | (S)-Methoprene Concentration in Fat ([1]; Group B 10 mg/kg oral, 6 hours, average of three animals): 3.369 ± 0.814 ppm | (S)-Methoprene Concentration in Fat ([1]; Group B 10 mg/kg oral, 7 hours, average of three animals): 2.921 ± 1.345 ppm | (S)-Methoprene Concentration in Fat ([1]; Group B 10 mg/kg oral, 8 hours, average of three animals): 2.408 ± 0.702 ppm | (S)-Methoprene Concentration in Fat ([1]; Group C 100 mg/kg oral, 1 hour, average of two animals): 1.060 ± 0.270 ppm | (S)-Methoprene Concentration in Fat ([1]; Group C 100 mg/kg oral, 2 hours, average of three animals): 14.726 ± 3.371 ppm | (S)-Methoprene Concentration in Fat ([1]; Group C 100 mg/kg oral, 3 hours, average of three animals): 22.868 ± 3.322 ppm | (S)-Methoprene Concentration in Fat ([1]; Group C 100 mg/kg oral, 4 hours, average of three animals): 45.316 ± 16.910 ppm | (S)-Methoprene Concentration in Fat ([1]; Group C 100 mg/kg oral, 5 hours, average of three animals): 38.420 ± 2.765 ppm | (S)-Methoprene Concentration in Fat ([1]; Group C 100 mg/kg oral, 6 hours, average of three animals): 41.898 ± 11.568 ppm | (S)-Methoprene Concentration in Fat ([1]; Group C 100 mg/kg oral, 7 hours, average of three animals): 39.393 ± 17.952 ppm | (S)-Methoprene Concentration in Fat ([1]; Group C 100 mg/kg oral, 8 hours, average of three animals): 47.162 ± 20.116 ppm | (S)-Methoprene Concentration in Blood ([2]; Group A 10 mg/kg I.V., 0.5 hours): 0.703 ± 0.307 ppm | (S)-Methoprene Concentration in Blood ([2]; Group A 10 mg/kg I.V., 1 hour): 0.345 ± 0.107 ppm | (S)-Methoprene Concentration in Blood ([2]; Group A 10 mg/kg I.V., 2 hours): 0.113 ± 0.028 ppm | (S)-Methoprene Concentration in Blood ([2]; Group A 10 mg/kg I.V., 3 hours): 0.079 ± 0.002 ppm | (S)-Methoprene Concentration in Blood ([2]; Group A 10 mg/kg I.V., 4 hours): 0.066 ± 0.028 ppm | (S)-Methoprene Concentration in Blood ([2]; Group A 10 mg/kg I.V., 5 hours): 0.048 ± 0.001 ppm | (S)-Methoprene Concentration in Blood ([2]; Group A 10 mg/kg I.V., 6 hours): 0.046 ± 0.027 ppm | (S)-Methoprene Concentration in Blood ([2]; Group A 10 mg/kg I.V., 7 hours): 0.019 ± 0.008 ppm | (S)-Methoprene Concentration in Blood ([2]; Group B 10 mg/kg oral, 1 hour): 0.112 ± 0.038 ppm | (S)-Methoprene Concentration in Blood ([2]; Group B 10 mg/kg oral, 2 hours): 0.264 ± 0.122 ppm | (S)-Methoprene Concentration in Blood ([2]; Group B 10 mg/kg oral, 3 hours): 0.202 ± 0.065 ppm | (S)-Methoprene Concentration in Blood ([2]; Group B 10 mg/kg oral, 4 hours): 0.130 ± 0.066 ppm | (S)-Methoprene Concentration in Blood ([2]; Group B 10 mg/kg oral, 5 hours): 0.052 ± 0.026 ppm | (S)-Methoprene Concentration in Blood ([2]; Group B 10 mg/kg oral, 6 hours): 0.045 ± 0.014 ppm | (S)-Methoprene Concentration in Blood ([2]; Group B 10 mg/kg oral, 7 hours): 0.020 ± 0.005 ppm | (S)-Methoprene Concentration in Blood ([2]; Group B 10 mg/kg oral, 8 hours): 0.021 ± 0.009 ppm | (S)-Methoprene Concentration in Blood ([2]; Group C 100 mg/kg oral, 1 hour): 0.165 ± 0.070 ppm | (S)-Methoprene Concentration in Blood ([2]; Group C 100 mg/kg oral, 2 hours): 3.487 ± 1.324 ppm | (S)-Methoprene Concentration in Blood ([2]; Group C 100 mg/kg oral, 3 hours): 1.302 ± 0.409 ppm | (S)-Methoprene Concentration in Blood ([2]; Group C 100 mg/kg oral, 4 hours): 1.504 ± 0.533 ppm | (S)-Methoprene Concentration in Blood ([2]; Group C 100 mg/kg oral, 5 hours): 0.930 ± 0.449 ppm | (S)-Methoprene Concentration in Blood ([2]; Group C 100 mg/kg oral, 6 hours): 0.527 ± 0.341 ppm | (S)-Methoprene Concentration in Blood ([2]; Group C 100 mg/kg oral, 7 hours): 0.608 ± 0.292 ppm | (S)-Methoprene Concentration in Blood ([2]; Group C 100 mg/kg oral, 8 hours): 0.483 ± 0.221 ppm
